# What was measured:
# [1] = test system: Trypanosoma brucei rhodesiense, STIB 900 strain, trypomastigotes stage; assay: In vitro activity against T. b. rhodesiense; assay type: cell-based; conditions: for IC50: Trypanosoma brucei, STIB 900, trypomastigotes, average of two independent assays, read-out: IC50 T. b. rhod.
# Description: (§1) The in vitro activities against the protozoan parasites T.b. rhodesiense, T. cruzi, L. donovani, and P. falciparum and cytotoxicity assessment against L6 cells were determined as reported elsewhere.
# [2] = test system: L6 rat skeletal myoblast cell line; assay: Cytotoxicity against L6 cells; assay type: cell-based; conditions: Rattus norvegicus, Myoblast, cytotoxicity, L6 rat skeletal myoblasts; average of two independent assays; read-out: IC50 L6
# Description: as §1
# [3] = test system: Trypanosoma cruzi, Tulahuen C4 strain, amastigotes stage; assay: In vitro activity against T. cruzi; assay type: cell-based; conditions: Trypanosoma cruzi, TULAHUEN, Tulahuen C4, amastigotes; average of two independent assays; read-out: IC50 T. cruzi
# Description: as §1
# [4] = test system: Leishmania donovani, MHOM-ET-67/L82 strain, amastigote/axenic stage; assay: In vitro activity against L. donovani; assay type: cell-based; conditions: Leishmania donovani, MHOM-ET-67/L82, axenic amastigotes; average of two independent assays; read-out: IC50 L. don.
# Description: as §1
# [5] = test system: Plasmodium falciparum, K1 strain, IEF stage; assay: In vitro activity against P. falciparum K1; assay type: cell-based; conditions: for IC50: Plasmodium falciparum, K1 dual drug resistant strain, IEF stage, average of two independent assays, read-out: IC50 P. falc. K1; for SI Pf: Selectivity index for P. falciparum = IC50 L6/IC50 Pf
# Description: as §1
# [6] = in vivo, 150 mg/kg
# [7] = test system: GFP-transfected P. berghei strain ANKA; assay: In vivo anti-malarial efficacy in P. berghei infected mice; design: species or system NMRI mice
# Description: Furan carboxylic acid analogue 16 was selected for preliminary proof-of-principle in vivo evaluation in Plasmodium berghei infected mice. […] Switching to an oral dosing experiment (100 mg/kg once per day for 4 days) yielded a 47% reduction of parasitaemia. Although not considered significant, these levels of activity for both ip and po dosing clearly identifies heterocyclic dioxothiazinoquinone carboxylic acids to be a novel anti-malarial drug scaffold warranting further structure-activity relationship studies.
# In vivo anti-malarial activity was assessed as previously described. Groups of three female NMRI mice (20–22 g) were intravenously infected with 2 × 10^7 parasitized erythrocytes on day 0 with GFP-transfected P. berghei strain ANKA [24]. Compounds were formulated in 100% DMSO, diluted 10-fold in distilled water and administered intraperitoneally in a volume of 10 ml kg^−1 on four consecutive days (4, 24, 48 and 72 h post infection). Control experiments used DMSO-H2O vehicle alone. Parasitemia was determined on day 4 post infection (24 h after last treatment) by FACS analysis. Activity was calculated as the difference between the mean per cent parasitaemia for the control (n = 5 mice) and treated groups expressed as a per cent relative to the control group. The survival of the animals was usually monitored up to 30 days: a compound was considered curative if the animal survived to day 30 after infection with no detectable parasites. In vivo efficacy studies in mice were conducted according to the rules and regulations for the protection of animal rights (“Tierschutzverordnung”) of the Swiss “Bundesamt für Veterinärwesen”. They were approved by the veterinary office of Canton Basel-Stadt, Switzerland.
Compound,melting point,IC50 [1],IC50 [2],IC50 [3],IC50 [4],IC50 [5],SI Pf [5],SI (T. brucei rhodesiense) ([1]; selectivity towards T. brucei rhodesiense versus L6),ip acute toxicity [6],reduction in parasitaemia ([7]; ip 50 (mg/kg)/day for four days),"mean survival time ([7]; ip 50 (mg/kg)/day for four days, untreated control 4–6 days)",reduction of parasitaemia ([7]; oral 100 mg/kg once per day for 4 days)
"CCCCCCCCNC(=O)c1ccc2c(n1)C(=O)C1=C(C2=O)S(=O)(=O)C=CN1 [Compound 8c, N-n-Octyl-5,10-dioxo-5,10-dihydro-4H-[1,4]thiazino[2,3-g]quinoline-7-carboxamide 1,1-Dioxide]",280 °C (dec.),2.4 µM,6.5 µM,42 µM,53 µM,0.98 µM,6,,,,,
"O=C(NCc1ccccc1)c1ccc2c(n1)C(=O)C1=C(C2=O)S(=O)(=O)C=CN1 [Compound 8d, N-Benzyl-5,10-dioxo-5,10-dihydro-4H-[1,4]thiazino[2,3-g]quinoline-7-carboxamide 1,1-Dioxide]",280 °C (dec.),4.2 µM,34 µM,160 µM,> 250 µM,4.7 µM,7,,,,,
"O=C(NCCc1ccccc1)c1ccc2c(n1)C(=O)C1=C(C2=O)S(=O)(=O)C=CN1 [Compound 8e, N-Phenethyl-5,10-dioxo-5,10-dihydro-4H-[1,4]thiazino[2,3-g]quinoline-7-carboxamide 1,1-Dioxide]",290 °C (dec.),0.67 µM,52 µM,140 µM,160 µM,6.5 µM,8,78,,,,
"O=C(NCCCc1ccccc1)c1ccc2c(n1)C(=O)C1=C(C2=O)S(=O)(=O)C=CN1 [Compound 8f, N-(3-Phenylpropyl)-5,10-dioxo-5,10-dihydro-4H-[1,4]thiazino[2,3-g]quinoline-7-carboxamide 1,1-Dioxide]",230 °C (dec.),5.9 µM,6.5 µM,59 µM,> 240 µM,1.2 µM,5,,,,,
"CC(C)=CCC/C(C)=C/CNC(=O)c1ccc2c(n1)C(=O)C1=C(C2=O)S(=O)(=O)C=CN1 [Compound 8g, (E)-N-(3,7-Dimethylocta-2,6-dien-1-yl)-5,10-dioxo-5,10-dihydro-4H-[1,4]thiazino[2,3-g] quinoline-7-carboxamide 1,1-Dioxide]",280 °C (dec.),2.5 µM,4.9 µM,42 µM,150 µM,1.1 µM,4,,,,,
"C#CCNC(=O)c1ccc2c(n1)C(=O)C1=C(C2=O)S(=O)(=O)C=CN1 [Compound 8h, N-(Prop-2-yn-1-yl)-5,10-dioxo-5,10-dihydro-4H-[1,4]thiazino[2,3-g]quinoline-7-carboxamide 1,1-Dioxide]",230 °C (dec.),10 µM,50 µM,150 µM,230 µM,1.7 µM,29,,,,,
"COCCNC(=O)c1ccc2c(n1)C(=O)C1=C(C2=O)S(=O)(=O)C=CN1 [Compound 8i, N-(2-Methoxyethyl)-5,10-dioxo-5,10-dihydro-4H-[1,4]thiazino[2,3-g] quinoline-7-carboxamide 1,1-Dioxide]",200 °C (dec.),13 µM,99 µM,140 µM,150 µM,1.5 µM,67,,,,,
"O=C(O)c1cc2c(s1)C(=O)C1=C(C2=O)S(=O)(=O)C=CN1 [Compound 12, 5,9-Dioxo-5,9-dihydro-4H-thieno[2′,3′:4,5]benzo[1,2-b][1,4]thiazine-7-carboxylic Acid 1,1-Dioxide]",290 °C (dec.),2.2 µM,140 µM,210 µM,> 290 µM,0.035 µM,4000,,,,,
"CCOC(=O)c1cc2c(o1)C(=O)C1=C(C2=O)S(=O)(=O)CCN1 [Compound 15, Ethyl 5,9-Dioxo-3,4,5,9-tetrahydro-2H-benzofuro[5,6-b][1,4]thiazine-7-carboxylate 1,1-Dioxide]",277 °C,1.1 µM,5.1 µM,4.7 µM,40 µM,0.11 µM,46,,,,,
"O=C(O)c1cc2c(o1)C(=O)C1=C(C2=O)S(=O)(=O)CCN1 [Compound 16, 5,9-Dioxo-3,4,5,9-tetrahydro-2H-benzofuro[5,6-b][1,4]thiazine-7-carboxylic Acid 1,1-Dioxide]",,7.5 µM,290 µM,> 300 µM,> 300 µM,0.12 µM,2400,,no toxicity,85.7%,9.6 days,47%
"O=C(O)c1cc2c(o1)C(=O)C1=C(C2=O)S(=O)(=O)C=CN1 [Compound 17, 5,9-Dioxo-5,9-dihydro-4H-benzofuro[5,6-b][1,4]thiazine-7-carboxylic Acid 1,1-Dioxide]",280 °C (dec.),2.7 µM,190 µM,> 300 µM,120 µM,0.34 µM,560,,,,,

# Source: publication PMC3806465, “Discovery and Evaluation of Thiazinoquinones as Anti-Protozoal Agents” (Marine Drugs, 2013)
